{
  "source": "patent US20160354320A1",
  "about": "“DRUG LOADED POLYMERIC NANOPARTICLES AND METHODS OF MAKING AND USING SAME” (BIND Therapeutics, Inc., priority 2011, published 2016)",
  "test": "Water solubility of cabazitaxel",
  "type": "physicochemical",
  "text": "Drug solubilizer (Tween 80) may be added after the fine emulsion has been quenched. Tween 80 is able to effectively solubilize CTXL crystals and allow for the isolation of nanoparticles from unencapsulated CTXL by preventing the formation of CTXL crystals, and/or by effectively solubilizing any CTXL crystals that form when the fine emulsion is quenched. A standard set of nanoemulsion conditions are as follows: […]",
  "data": [
    {"substance": "cabazitaxel [CTXL]", "values": [
      {"measurement": "water solubility", "result": "very low water solubility"}
    ]}
  ]
}
